≈ marks a conversion by molar mass, not a printed value. Calls of active or inactive are those of the source. The rule behind the calls is not given here.
Columns and labels:
[1] = physchem; details: buffer, pH 7.4
[2] = system: Plasmodium falciparum; experiment: microbe, parasite or virus in culture; details: NF54, 72 h
[3] = system: Plasmodium falciparum; experiment: Antiplasmodial activity against multidrug resistant Plasmodium falciparum K1 incubated for 72 hrs by microplate reader assay; format: functional, organism-based; details: K1, 72 h
[4] = Selectivity index, ratio of IC50 for Plasmodium falciparum NF54 to IC50 for CHO cells; details: hamster
[5] = Cytotoxicity against CHO cells measured after 48 hrs by MTT assay; details: Chinese hamster
[6] = biological target: Voltage-gated inwardly rectifying potassium channel KCNH2 (Homo sapiens, UniProt Q12809); experiment: Inhibition of human ERG expressed in CHO-K1 cells by Q-patch clamp assay
Sequence of Voltage-gated inwardly rectifying potassium channel KCNH2 (Q12809 whole entry): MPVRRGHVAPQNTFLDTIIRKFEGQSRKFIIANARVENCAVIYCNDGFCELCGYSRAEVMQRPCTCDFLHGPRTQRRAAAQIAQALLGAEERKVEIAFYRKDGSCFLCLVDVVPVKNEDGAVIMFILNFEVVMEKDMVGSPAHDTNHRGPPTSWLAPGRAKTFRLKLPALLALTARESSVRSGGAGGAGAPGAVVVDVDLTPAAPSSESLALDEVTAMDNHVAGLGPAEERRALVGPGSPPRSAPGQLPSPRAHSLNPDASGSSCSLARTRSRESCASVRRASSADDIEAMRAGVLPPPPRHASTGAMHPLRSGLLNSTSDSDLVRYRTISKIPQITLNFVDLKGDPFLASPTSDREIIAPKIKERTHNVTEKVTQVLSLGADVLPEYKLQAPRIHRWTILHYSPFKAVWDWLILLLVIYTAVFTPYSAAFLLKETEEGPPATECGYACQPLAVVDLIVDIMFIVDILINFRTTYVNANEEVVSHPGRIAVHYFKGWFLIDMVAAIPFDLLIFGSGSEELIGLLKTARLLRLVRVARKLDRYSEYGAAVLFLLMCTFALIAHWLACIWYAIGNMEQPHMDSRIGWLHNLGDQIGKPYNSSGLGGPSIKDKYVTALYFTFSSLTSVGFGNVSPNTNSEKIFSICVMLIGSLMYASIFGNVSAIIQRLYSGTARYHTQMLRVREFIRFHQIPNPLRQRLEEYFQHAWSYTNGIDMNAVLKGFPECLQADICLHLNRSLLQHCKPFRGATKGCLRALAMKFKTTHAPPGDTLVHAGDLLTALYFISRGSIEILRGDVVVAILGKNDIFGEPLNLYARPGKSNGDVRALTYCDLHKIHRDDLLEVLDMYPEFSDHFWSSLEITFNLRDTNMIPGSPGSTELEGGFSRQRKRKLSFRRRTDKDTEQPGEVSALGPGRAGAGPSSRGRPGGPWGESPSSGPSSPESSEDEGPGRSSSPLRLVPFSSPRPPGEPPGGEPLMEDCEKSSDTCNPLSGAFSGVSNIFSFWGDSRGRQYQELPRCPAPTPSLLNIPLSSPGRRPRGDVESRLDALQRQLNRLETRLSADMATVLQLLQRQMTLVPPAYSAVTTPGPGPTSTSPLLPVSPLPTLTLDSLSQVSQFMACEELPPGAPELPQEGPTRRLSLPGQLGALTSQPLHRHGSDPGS

[7] = system: Hemozoin; experiment: Inhibition of Beta-hematin in Plasmodium falciparum NF54 assessed as hemozoin formation after 36 hrs by flow cytometry analysis

SMILES | solubility kinetic at 2 h [1] | IC50 [2] | also measured
Cc1noc(-c2ccc(CCN3CCC(Nc4nc5cc(S(C)(=O)=O)ccc5n4C)CC3)cc2)n1 | 60 µM (≈ 29.7 µg/mL) | 4650 nM | –
C[C@@H]1CN=C(c2ccc(CCN3CCC(Nc4nc5ccccc5n4Cc4ccc(C#N)cc4)CC3)cc2)O1 | 60 µM (≈ 31.1 µg/mL) | 104 nM | IC50 [3]: 352 nM
Cc1noc(-c2ccc(CCN3CCC(Nc4nc5ccccc5n4Cc4ccc(C(F)(F)F)cc4)CC3)cc2)n1 | 10 µM (≈ 5.61 µg/mL) | 30 nM | IC50 [3]: 104 nM; selectivity ratio [4]: 111; IC50 at 48 h ([5]; CHO cells): 3330 nM
CN(C)Cc1noc(-c2ccc(CCN3CCC(Nc4nc5ccccc5n4C)CC3)cc2)n1 | 120 µM (≈ 55.2 µg/mL) | 831 nM | –
Cn1c(NC2CCN(CCc3ccc(C(=O)NC4(CO)CC4)cc3)CC2)nc2ccccc21 | 60 µM (≈ 26.9 µg/mL) | 1730 nM | IC50 [6]: > 30000 nM
Cc1noc(-c2ccc(CCN3CCC(Nc4nc5cc(C#N)ccc5n4C)CC3)cc2)n1 | 80 µM (≈ 35.3 µg/mL) | 611 nM | –
Cn1c(NC2CCN(CCc3ccc(C(=O)N4CCN5CCCC5C4)cc3)CC2)nc2ccccc21 (stereo not drawn) | 60 µM (≈ 29.2 µg/mL) | 1280 nM | –
Cn1c(NC2CCN(CCc3ccc(C(=O)NCCN)cc3)CC2)nc2ccccc21 | 100 µM (≈ 42.1 µg/mL) | > 6000 nM | –
Cc1noc(-c2ccc(CCN3CCC(Nc4nc5cc(C(=O)O)ccc5n4C)CC3)cc2)n1 | 160 µM (≈ 73.7 µg/mL) | > 6000 nM | –
Cc1noc(-c2ccc(CCN3CC[C@@H](Nc4nc5ccccc5n4Cc4ccc(C#N)cc4)C3)cc2)n1 | – | 448 nM | –
Cc1noc(-c2ccc(CCN3CC[C@H](Nc4nc5ccccc5n4Cc4ccc(C#N)cc4)C3)cc2)n1 | – | 515 nM | –
Cc1noc(-c2ccc(CCN3CCC(Nc4nc5cc(C)c(C)cc5n4C)CC3)cc2)n1 | 60 µM (≈ 26.7 µg/mL) | 163 nM | –
Cn1c(NC2CCN(CCc3ccc(C(=O)NCCO)cc3)CC2)nc2ccccc21 | 120 µM (≈ 50.6 µg/mL) | 4170 nM | –
Cn1c(NC2CCN(CCc3ccc(C(=O)N4CCC(C)(O)C4)cc3)CC2)nc2ccccc21 (stereo not drawn) | 80 µM (≈ 36.9 µg/mL) | > 6000 nM | –
N#Cc1ccc(Cn2c(NC3CCN(CCc4ccc(-c5ncon5)cc4)CC3)nc3ccccc32)cc1 | 40 µM (≈ 20.1 µg/mL) | 89 nM | IC50 [3]: 399 nM; selectivity ratio [4]: 187; IC50 at 48 h ([5]; CHO cells): 16600 nM
Cc1noc(-c2ccc(CCN3CCC(Nc4nc5cc(F)c(F)cc5n4C)CC3)cc2)n1 | 80 µM (≈ 36.2 µg/mL) | 1160 nM | –
Cn1c(NC2CCN(CCc3ccc(-c4nc(CO)no4)cc3)CC2)nc2ccccc21 | 100 µM (≈ 43.3 µg/mL) | 567 nM | –
Cc1nnc(-c2ccc(CCN3CCC(Nc4nc5ccccc5n4Cc4ccc(C#N)cc4)CC3)cc2)o1 | 20 µM (≈ 10.4 µg/mL) | 519 nM | –
COC(=O)c1ccc(CCN2CCC(Nc3nc4ccccc4n3C)CC2)cc1 | 120 µM (≈ 47.1 µg/mL) | 1450 nM | –
Cc1noc(-c2ccc(CCN3CCC(Nc4nc5ccccc5n4Cc4cccnc4)CC3)cc2)n1 | – | 304 nM | –
Cn1c(NC2CCN(CCc3ccc(C(=O)N4CCC(O)C4)cc3)CC2)nc2ccccc21 (stereo not drawn) | 80 µM (≈ 35.8 µg/mL) | 3990 nM | –
Cn1c(NC2CCN(CCc3ccc(C(=O)O)cc3)CC2)nc2ccccc21 | 160 µM (≈ 60.6 µg/mL) | > 6000 nM | –
Cc1noc(-c2ccc(CCN3CCC(Nc4nc5ccccc5n4CC4CCC(F)(F)CC4)CC3)cc2)n1 | 20 µM (≈ 10.7 µg/mL) | 460 nM | –

SMILES | solubility kinetic at 2 h [1] | IC50 [2] | also measured
C=CCNC(=O)c1ccc(CCN2CCC(Nc3nc4ccccc4n3C)CC2)cc1 | 80 µM (≈ 33.4 µg/mL) | 2610 nM | –
COC(=O)c1ccc2c(c1)nc(NC1CCN(CCc3ccc(-c4nc(C)no4)cc3)CC1)n2C | 120 µM (≈ 56.9 µg/mL) | 496 nM | IC50 [6]: 490 nM
Cc1noc(-c2ccc(CCN3CCC(Nc4nc5cc(Cl)c(Cl)cc5n4C)CC3)cc2)n1 | 80 µM (≈ 38.8 µg/mL) | 514 nM | –
Cc1noc(-c2ccc(CCN3CCC(Nc4nc5ccccc5n4CC4CCCCC4)CC3)cc2)n1 | 80 µM (≈ 39.9 µg/mL) | 93 nM | IC50 [3]: 156 nM; selectivity ratio [4]: 477; IC50 at 48 h ([5]; CHO cells): 44400 nM; IC50 [6]: 890 nM
Cn1c(NC2CCN(CCc3ccc(-c4nc(C(=O)O)no4)cc3)CC2)nc2ccccc21 | 120 µM (≈ 53.6 µg/mL) | > 6000 nM | IC50 [6]: > 30000 nM
Cc1noc(-c2ccc(CCN3CC4(CCN(c5nc6ccccc6n5Cc5ccc(C#N)cc5)C4)C3)cc2)n1 | 40 µM (≈ 21.2 µg/mL) | 446 nM | –
Cc1noc(-c2ccc(CCN3CCC(Nc4nc5cc(Br)ccc5n4C)CC3)cc2)n1 | 80 µM (≈ 39.6 µg/mL) | 720 nM | –
Cn1c(NC2CCN(CCc3ccc(C(=O)N4CCNCC4)cc3)CC2)nc2ccccc21 | 120 µM (≈ 53.6 µg/mL) | 3410 nM | IC50 [6]: > 30000 nM
Cc1noc(-c2ccc(CCN3CCC(Nc4nc5ccccc5n4Cc4ccc(C#N)cc4)CC3)cc2)n1 | – | 97 nM | IC50 [3]: 178 nM; IC50 at 48 h ([5]; cho): 19700 nM
CSCc1noc(-c2ccc(CCN3CCC(Nc4nc5ccccc5n4C)CC3)cc2)n1 | 80 µM (≈ 37 µg/mL) | 383 nM | –
Cc1noc(-c2ccc(CCN3CCC(Nc4nc5ccccc5n4C(C)C)CC3)cc2)n1 | 20 µM (≈ 8.89 µg/mL) | 702 nM | –
Cc1nc(-c2ccc(CCN3CCC(Nc4nc5ccccc5n4Cc4ccc(C#N)cc4)CC3)cc2)no1 | 40 µM (≈ 20.7 µg/mL) | 51 nM | IC50 [3]: 174 nM; selectivity ratio [4]: 115; IC50 at 48 h ([5]; CHO cells): 5870 nM
Cc1noc(-c2ccc(CCN3CCC(Nc4nc5ccccc5n4C)CC3)cc2)n1 | 160 µM (≈ 66.6 µg/mL) | 33 nM | IC50 [3]: 82 nM; selectivity ratio [4]: 275; IC50 at 48 h ([5]; CHO cells): 9080 nM; IC50 [6]: 350 nM
Cc1noc(-c2ccc(CCN3CCC(Nc4nc5cc(C(F)(F)F)ccc5n4C)CC3)cc2)n1 | 40 µM (≈ 19.4 µg/mL) | 422 nM | –
CCN(CC)Cc1cc(Nc2ccnc3cc(Cl)ccc23)ccc1O [AMODIAQUINE] | – | – | IC50 [7]: 10000 nM
Cn1c(NC2CCN(CCc3ccc(C(=O)N4CCOCC4)cc3)CC2)nc2ccccc21 | 80 µM (≈ 35.8 µg/mL) | > 6000 nM | –
Cc1noc(-c2ccc(CCN3CCC(Nc4nc5cc(F)ccc5n4C)CC3)cc2)n1 | 80 µM (≈ 34.8 µg/mL) | 834 nM | IC50 [6]: 28700 nM
N#Cc1ccc(Cn2c(NC3CCN(CCc4ccc(-c5noc(C(F)(F)F)n5)cc4)CC3)nc3ccccc32)cc1 | 20 µM (≈ 11.4 µg/mL) | 21 nM | IC50 [3]: 49 nM; selectivity ratio [4]: 175; inhibition [7]: Active; IC50 at 48 h ([5]; CHO cells): 3850 nM
Cn1c(NC2CCN(CCc3ccc(-c4nc(C5CC5)no4)cc3)CC2)nc2ccccc21 | 60 µM (≈ 26.6 µg/mL) | 484 nM | –
CCN(CC)CCCC(C)Nc1ccnc2cc(Cl)ccc12 (stereo not drawn) [CHLOROQUINE] | – | – | IC50 [7]: 22000 nM
CC(C)c1noc(-c2ccc(CCN3CCC(Nc4nc5ccccc5n4C)CC3)cc2)n1 | 60 µM (≈ 26.7 µg/mL) | 492 nM | –
COc1ccc2c(c1)nc(NC1CCN(CCc3ccc(-c4nc(C)no4)cc3)CC1)n2C | 80 µM (≈ 35.7 µg/mL) | 309 nM | –
C[C@H]1COC(c2ccc(CCN3CCC(Nc4nc5ccccc5n4Cc4ccc(C#N)cc4)CC3)cc2)=N1 | 20 µM (≈ 10.4 µg/mL) | 74 nM | IC50 [3]: 263 nM; selectivity ratio [4]: 525; IC50 at 48 h ([5]; CHO cells): 38900 nM

From ChEMBL document CHEMBL5236628 (J Med Chem, 2022)
